≈ marks a conversion by molar mass, not a printed value. Where two headings read alike, the source gives them in different places. Where no end group is shown, it is not given here. The star is where a group is joined. 5FAM = O=C1OC2(c3ccc(O)cc3Oc3cc(O)ccc32)c2ccc(C(=O)*)cc21; Dabcyl = CN(C)c1ccc(N=Nc2ccc(C(=O)*)cc2)cc1
How the values were obtained:
[1] = tested on: DH5α E. coli; assay: Bacteria viability assay (CFU), AMP system; assay type: cell-based
Method: (§1) Positive control for AMP toxicity (black bar).
Figure EV4 Parent drug control for all conditions in AMP prodrug system Parent drug (R9, polyarginine) controls for conditions testing different media conditions and temperatures in the AMP prodrug studies.
DH5α Escherichia coli were a gift from Todd Sulchek's BioMEMS lab at Georgia Tech. E. coli were cultured in LB broth (Lennox) at 37°C and plated on LB agar (Lennox) plates. LB broth was purchased from Millipore Sigma (Burlington, MA) and LB agar was purchased from Invitrogen (Carlsbad, CA). AMP and locked AMP were custom ordered from Genscript (Piscataway, NJ). See Table EV1 for more information. Bacteria were grown to a concentration of 10^9 CFU/ml before being used for experiments. Concentration was estimated by measuring the OD600 of the bacterial suspension, and assuming an OD600 of 1.000 corresponds to a concentration of 8 × 10^8 CFU/ml. Bacterial cell viability was measured by making eight 10‐fold serial dilutions, and plating three 10‐µl spots on an LB agar plate. Plates were incubated overnight at 37°C, and CFUs were counted. Untreated bacteria CFU counts served as control for 0% cytotoxicity, and bacteria + IPA (or 0 countable CFUs) served as control for 100% cytotoxicity.

[2] = tested on: DH5α E. coli; assay: Bacteria viability assay, AMP prodrugs with TEV protease or inhibitor; assay type: cell-based; details: CFU, n = 3–4
[3] = tested on: OmpT; details: micromolar concentrations; ref Brannon et al, 2015; cited from earlier work
Excerpt: To validate the predictions of our mathematical model with an in vitro bacteria‐activated prodrug system, we synthesized a protease‐activated AMP prodrug. This AMP prodrug comprised cationic (polyarginine, R9) antimicrobial peptides (AMP) in charge complexation with anionic peptide locks (polyglutamic acid, E13) by a linker peptide (RRS|RRV) specific for the ubiquitous bacterial protease OmpT (Olson et al, [2009]; preprint: Holt et al, [2019]). Upon proteolytic cleavage of the linker, the hairpin prodrug is unlocked to release free AMP (Fig 3A). To measure OmpT activity, we synthesized an acti ...

[4] = target: OmpT (Escherichia coli, UniProt P09169); details: Fig EV5B, text printed in picture
OmpT (Escherichia coli, UniProt P09169), sequence (P09169 21-317): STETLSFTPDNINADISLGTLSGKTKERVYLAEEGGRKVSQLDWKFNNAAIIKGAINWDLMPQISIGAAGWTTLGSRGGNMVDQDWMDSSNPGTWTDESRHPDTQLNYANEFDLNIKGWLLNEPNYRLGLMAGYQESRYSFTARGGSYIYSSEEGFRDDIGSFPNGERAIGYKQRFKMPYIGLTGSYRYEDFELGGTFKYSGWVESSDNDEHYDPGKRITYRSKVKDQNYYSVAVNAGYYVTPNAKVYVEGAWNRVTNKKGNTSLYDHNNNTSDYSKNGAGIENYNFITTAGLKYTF
Excerpt: (§2) This allowed us to more rigorously test the model by predicting bacteria‐prodrug response curves across nine distinct combinations of kcat and r values before performing the physical experiments. We experimentally controlled the nine distinct combinations of kcat and r values by altering the ambient temperature and concentration of broth (conditions labeled A1–3, B1–3, and C1–3; Table EV3). We affected the enzymatic activation rate of the prodrug, kcat, by changing temperature as described by the Arrhenius equation (Calvert, [1990]). […] To experimentally validate this, we incubated bacteria with AMP prodrug under the defined nine conditions and quantified the number of living bacteria longitudinally over the course of a 24‐h treatment window.

[5] = tested on: UTI89 E. coli; assay: Bacterial toxicity of TMP and TM-TMP (CFU / MIC); assay type: cell-based
Excerpt: Just as with our earlier experiments, we measured (i) the number of bacteria and (ii) the number of drug molecules consumed in each killing reaction to calculate the parameters a and b, respectively (Fig EV8).

[6] = tested on: OmpT expressed on the surface of E. coli K‐12 BW25113; assay: Cleavage assay with OmpT expressed on the surface of E. coli; assay type: biochemical; details: 37°C, n = 3
Excerpt: To measure OmpT activity, we synthesized an activity probe (McCarter et al, [2004]; Kwong et al, [2013], [2021]; Holt et al, [2017], [2018]; Mac et al, [2019]; Zhuang et al, [2019]) with free linker peptides containing a fluorophore‐quencher pair, which produced an increase in fluorescence upon proteolytic cleavage.
as §1

[7] = target: OmpT on DH5α E. coli (Escherichia coli, UniProt P09169)
OmpT on DH5α E. coli, sequence (P09169 21-317): as above
Excerpt: as §2
Figure EV2 Calculating bacterial growth rate and enzymatic activity in the AMP prodrug system • Schematic of the simplified model that only includes bacteria and a substrate probe, which was used to quantify r and kcat from bacterial cleavage assays. • Bacterial cleavage assays (blue line) where we are measuring the increase in fluorescence from the cleavage of the fluor‐quencher substrate probe over time. Bacteria and fluor‐quencher probe are incubated together for 12 h. Then, we fit a simplified model to the results, which is plotted as the dashed line. Each panel is labeled with the environmental condition as described in Table EV3 and correlating with Fig 4.
Table EV3. Additional information for experimental conditions. This information includes incubation temperature (second column from left), the concentration of LB broth by volume (third column from left), growth rate, r (fourth column from left), enzyme catalytic turnover, kcat (fifth column from left), and the bacterial advantage heuristic, BAH (sixth column from left).

[8] = tested on: DH5α E. coli; assay: Bacterial Advantage Heuristic (BAH) / model, AMP prodrug system
Excerpt: as §2

[9] = tested on: DH5α E. coli; assay: Short-time drug dosing experiment with free AMP for a and b; assay type: cell-based; details: DH5a + AMP prodrug model; from free AMP dosing, t < 10 min, n = 3
Method: Experiment was taken at a short time interval (t < 10 min) so we could calculate the number of bacteria and drug copies consumed in each killing reaction.

Q: Which results are given for polyarginine [free AMP]?
A: reduction in colonies vs untreated controls ([1]; free AMP, CFU, n = 3–4 biological replicates, one-way ANOVA): significant reduction in colonies compared to untreated controls; treatment success ([1]; nine conditions A1–C3 (30/37 °C, 0–66% LB broth), 24 h, serial CFU, n = 3): successfully treated bacteria in all nine conditions tested

Q: With aprotinin [reference compound] as the compound, how does the “reduction of bacteria load” value ([2]; control with OmpT inhibitor aprotinin plus OmpT-specific locked AMP) read?
A: did not significantly reduce bacteria load

Q: And the “inhibition of OmpT” value [3]?
A: inhibits OmpT when present in micromolar concentrations

Q: With “EEEEEEEEENLYFQGRRRRRRRR [Locked AMP (linker 3), AMP prodrug with linker ENLYFQG, specific to TEV protease]” as the compound, how does the “catalytic efficiency kcat/Km (rank in words)” value [4] read?
A: Lowest

Q: What about the “reduction of bacteria load” value ([2]; TEV-specific locked AMP alone (no TEV protease)) of the same compound?
A: did not significantly reduce bacteria load

Q: What about the elimination of bacteria ([2]; TEV-specific locked AMP plus TEV protease) of the same compound?
A: elimination of bacteria

Q: For COc1cc(Cc2cnc(N)nc2N)cc(OC)c1OC [TMP, trimethoprim], which “change in number of bacteria killed on adding GSH” value ([5]; 5 mM GSH vs no GSH, surviving CFU) is on record?
A: did not significantly change

Q: And the “efficiency at killing bacteria vs TM-TMP” value ([5]; 37°C, 75% broth, n = 3)?
A: significantly more efficient at killing UTI89 bacteria

Q: And the MIC ([5]; Escherichia coli, 37°C, 75% broth, n = 3, read-out: minimum inhibitory concentration (MIC))?
A: 3.2 µM (≈ 0.929 µg/mL)

Q: Which “linker specificity: cleavage activity by parent strain vs OmpT knockout” value ([6]; OmpT-positive E. coli K‐12 BW25113 vs OmpT genetic knockout, fluorescence 485/528 nm, 60–120 min) does the source give for “Dabcyl-RRSRRVK(5FAM) [OmpT Probe, free linker peptide RRSRRV with fluorophore-quencher pair]” here?
A: only observed activity in samples incubated with the parent strain (i.e., OmpT‐positive)

Q: What about the “cleavage activity in presence of aprotinin” value ([6]; recombinant OmpT or E. coli surface OmpT with aprotinin, fluorescence) of the same compound?
A: no activity in samples containing the serine protease inhibitor, Aprotinin

Q: With “EEEEEEEEEEEEERRSRRVRRRRRRRRR [Locked AMP (linker 1), R9 antimicrobial peptide locked by E13 via OmpT-cleavable linker RRSRRV; default locked AMP]” as the compound, how does the “catalytic efficiency kcat/Km (rank in words)” value [4] read?
A: High

Q: What about the kcat ([7]; condition A1: 37 °C, 0% LB broth, r 0.1 h^-1) of the same compound?
A: 25 h^-1 x 10^10

Q: And the kcat ([7]; condition A2: 30 °C, 2% LB broth, r 0.14 h^-1)?
A: 13.6 h^-1 x 10^10

Q: And the kcat ([7]; condition A3: 37 °C, 2% LB broth, r 0.3 h^-1)?
A: 22 h^-1 x 10^10

Q: What about the kcat ([7]; condition B1: 37 °C, 4% LB broth, r 0.5 h^-1) of the same compound?
A: 15 h^-1 x 10^10

Q: What about the kcat ([7]; condition B2: 37 °C, 6% LB broth, r 0.85 h^-1) of the same compound?
A: 13.6 h^-1 x 10^10

Q: What about the kcat ([7]; condition B3: 37 °C, 20% LB broth, r 2.2 h^-1) of the same compound?
A: 1 h^-1 x 10^10

Q: What about the kcat ([7]; condition C1: 30 °C, 20% LB broth, r 1.4 h^-1) of the same compound?
A: 5.2 h^-1 x 10^10

Q: What about the kcat ([7]; condition C2: 30 °C, 66% LB broth, r 1.6 h^-1) of the same compound?
A: 4 h^-1 x 10^10

Q: And the kcat ([7]; condition C3: 37 °C, 66% LB broth, r 3 h^-1)?
A: 6 h^-1 x 10^10

Q: And the elimination of bacteria ([2]; OmpT-specific locked AMP alone, natively expressed OmpT)?
A: elimination of bacteria

Q: What about the “ratio of a to b” value [8] of the same compound?
A: 0.5 × 10^−11

Q: And the “a, bacterial death rate constant” value [9]?
A: 1e-13 µL/h

Q: What about the “b, drug decay rate constant” value [9] of the same compound?
A: 0.02 µL/h

— article PMC8744131, “Dimensionless parameter predicts bacterial prodrug success” (Molecular Systems Biology, 2022)
